Paper PMC7545187, “Endocrine disruption of vitamin D activity by perfluoro-octanoic acid (PFOA)” (Scientific Reports, 2020)

Target: T1, Vitamin D receptor (VDR) (Homo sapiens, UniProt P11473)
T1 sequence (P11473 1-427): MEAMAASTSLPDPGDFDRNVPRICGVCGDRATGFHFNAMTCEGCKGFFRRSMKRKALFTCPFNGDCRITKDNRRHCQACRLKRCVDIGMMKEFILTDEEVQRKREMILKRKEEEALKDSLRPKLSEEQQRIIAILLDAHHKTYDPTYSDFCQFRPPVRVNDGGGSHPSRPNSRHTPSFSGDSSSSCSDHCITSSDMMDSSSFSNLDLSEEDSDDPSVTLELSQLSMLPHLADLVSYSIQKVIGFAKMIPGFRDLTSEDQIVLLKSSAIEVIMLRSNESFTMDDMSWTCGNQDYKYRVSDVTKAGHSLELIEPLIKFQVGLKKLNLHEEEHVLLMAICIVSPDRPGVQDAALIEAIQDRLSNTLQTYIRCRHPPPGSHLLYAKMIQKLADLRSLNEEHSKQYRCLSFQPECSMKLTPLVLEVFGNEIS
Test: SPR competition: PFOA ([…]) with […](OH)D over immobilized VDR; […] decrease, no Kd for PFOA
Assay type: binding

SMILES: O=C(O)C(F)(F)C(F)(F)C(F)(F)C(F)(F)C(F)(F)C(F)(F)C(F)(F)F [PFOA, perfluorooctanoic acid]
- % decrease: 10 % decrease
